# Experimental data published in US10082496B2, “Targeting emopamil binding protein (EBP) with small molecules that induce an abnormal feedback response by lowering endogenous cholesterol biosynthesis” (Board of Regents of the University of Texas System, priority 2014, dated 2018).
# Legend:
# DLD1 tumors = assay: DLD1 xenograft mouse model; type: in vivo; conditions: 40 mg/kg intraperitoneally twice daily for 18 days
# [1] = tested on: colorectal tumors in CPC;Apc mice; assay: CPC;Apc genetically engineered mouse model of colorectal tumors; conditions: in vivo
# Method: These mice carry a CDX2P-NLS Cre recombinase transgene and a loxP-targeted Apc allele that deletes exon 14, leading to a frame shift at codon 580 and a truncated APC protein (Hinoi, T. et al. Mouse model of colonic adenoma-carcinoma progression based on somatic Apc inactivation. Cancer Res 67, 9721-9730 (2007)). […] Weights were measured every 15 days over the treatment period. These studies were performed according to the guidelines of the UT Southwestern Institutional Animal Care and Use Committee.
# HCT116 cells = assay: Dose response studies in CRC line HCT116 (wt APC); type: cell-based; conditions: Homo sapiens, HCT-116; read-out: IC50 towards HCT116 cells
# Excerpt: These 14 compounds then were obtained commercially and their IC50 determined by performing dose response studies with half log dilution series at 12 concentration points in two authentic CRC lines: HCT116 (wt APC) and DLD1 (truncated APC). […] These two compounds served as initial lead compounds for analog development and for additional studies.
smiles,measurement,setting,value
COc1ccc(S(=O)(=O)N2CCC(N3CCC(C)CC3)CC2)cc1 [TASIN-1],overt toxicity,DLD1 tumors,no overt toxicity
same,toxicity in xenograft and genetically engineered CRC mouse models,[1],without noticeable toxicity
same,IC50,HCT116 cells,> 10 µM
